Data published in ChEMBL document CHEMBL1132872, “Synthesis of a potent aminocyclitol alpha-mannosidase inhibitor, 1L-(1,2,3,5/4)-5-amino-4-O-methyl-1,2,3,4-cyclopentanetetrol” (Bioorg Med Chem Lett, 2000).

Key:
Parameters in all cases: species or system Canavalia ensiformis
[1] = Inhibitory activity against Alpha-mannosidase (Jack bean)
[2] = Inhibitory activity against Alpha-mannosidase (Jack bean); No inhibition
[3] = Compound (at <10 e -3M) was tested for inhibition of Alpha-mannosidase (jack bean); No inhibition

Row | SMILES | IC50 [1] | other results
1 | N[C@H]1[C@@H](O)[C@@H](O)[C@@H](O)[C@@H]1S | 36 µM | 
2 | CO[C@@H]1[C@@H](N)[C@@H](O)[C@@H](O)[C@H]1O | 0.16 µM | 
3 | CO[C@@H]1[C@@H](N)[C@@H](OC)[C@@H](O)[C@H]1O |  | IC50 [2]: Not Active
4 | CO[C@H]1[C@@H](N)[C@@H](O)[C@@H](O)[C@H]1O |  | IC50 [3]: Not Active

Now from value to molecule, other results behind:

Row | IC50 [1] | SMILES | other results
5 | 11 µM | N[C@@H]1C[C@H](O)[C@H](O)[C@@H]1O | 
6 | 5 µM | CCS[C@@H]1[C@@H](N)[C@@H](O)[C@@H](O)[C@H]1O | 
7 | 0.35 µM | CS[C@@H]1[C@@H](N)[C@@H](O)[C@@H](O)[C@H]1O [MANNOSTATIN A] | 
